Data reported in patent publication US20260022142A1, “MACROCYCLIC IMMUNOMODULATORS” (Bristol-Myers Squibb Company, priority 2022, published 2026).
Bridge positions count the residues as written; N and C are the ends. Square brackets hold non-standard residues; d marks the D form. Peptide text beside a SMILES is read from it. * marks the point of attachment. Phe(3,4,5-F3) = N[C@@H](Cc1cc(F)c(F)c(F)c1)C(=O)O; Bip = N[C@@H](Cc1ccc(-c2ccccc2)cc1)C(=O)O; Phe(3-CN) = N#Cc1cccc(C[C@H](N)C(=O)O)c1; Phe(3-Me) = Cc1cccc(C[C@H](N)C(=O)O)c1; Val(3-OH) = CC(C)(O)[C@H](N)C(=O)O; 4Pal = N[C@@H](Cc1ccncc1)C(=O)O; Aad = N[C@@H](CCCC(=O)O)C(=O)O; Cha = N[C@@H](CC1CCCCC1)C(=O)O; Carboxymethyl = O=C(O)C*; Orn = NCCC[C@H](N)C(=O)O; Aun = NCCCCCCCCCCC(=O)O; Dab = NCC[C@H](N)C(=O)O

Biological target: T1, PD-1/PD-L1 interaction (PE-labeled human PD-L1-Ig binding to Jurkat cell line over-expressing human PD-1) (Homo sapiens, UniProt Q15116)
T1 construct: expressed in transfected cells; host or cells: Jurkat
T1 sequence (Q15116 25-288): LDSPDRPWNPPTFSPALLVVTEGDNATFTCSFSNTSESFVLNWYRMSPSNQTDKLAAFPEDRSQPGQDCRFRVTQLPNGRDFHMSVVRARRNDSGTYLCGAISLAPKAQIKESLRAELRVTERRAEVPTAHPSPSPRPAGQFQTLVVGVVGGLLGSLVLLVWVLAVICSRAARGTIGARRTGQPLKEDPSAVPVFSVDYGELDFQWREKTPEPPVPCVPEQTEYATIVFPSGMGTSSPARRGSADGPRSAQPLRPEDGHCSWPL
Experiment: Jurkat-PD-1 Cell Binding High-Content Screening Assay (CBA)
Format: cell-based
Details: Jurkat cell line over-expressing human PD-1; PE-labeled PD-L1-Ig 20 nM final; read-out: Jurkat hPD1-PDL1 IC50
Summary of the method: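 Jurkat cells over-expressing human PD-1 (8×10^3 per well, DMEM/10% FCS) preincubated with compound 2 h at 37° C, then PE-labeled human PD-L1-Ig (20 nM final) added for 1 h. Cells fixed with paraformaldehyde, Hoechst-stained, and bound fluorescence quantified by high-content imaging.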

| Structure (SMILES) | IC50 [nM] |
| --- | --- |
| Cc1cccc(C[C@@H]2NC(=O)[C@H](CC(=O)O)NC(=O)[C@H](Cc3cccc(C#N)c3)NC(=O)[C@H](Cc3ccncc3)NC(=O)CSC[C@@H](C(=O)N[C@@H](CCN)C(=O)NCCCCCCCCCCC(=O)O)NC(=O)[C@H](CO)NC(=O)[C@H](C(C)(C)O)NC(=O)[C@H](CC3CCCCC3)NC(=O)[C@H](CCN)NC(=O)[C@@H](CC(C)C)NC(=O)[C@H](CCCN)NC(=O)[C@H](Cc3ccc(OCC(=O)O)cc3)NC(=O)[C@H](Cc3ccc(-c4ccccc4)cc3)NC(=O)[C@H](Cc3ccc(OCC(=O)O)cc3)NC2=O)c1 [Compound 2195] ({CH2CO}-[4Pal][Phe(3-CN)]D[Phe(3-Me)]Y(Carboxymethyl)[Bip]Y(Carboxymethyl)[Orn][dL][Dab][Cha][Val(3-OH)]SC[Dab][Aun]-OH; thioether N-14) | 11.8 |
| Cc1cccc(C[C@@H]2NC(=O)[C@H](CC(=O)O)NC(=O)[C@H](Cc3cccc(C#N)c3)NC(=O)[C@H]([C@@H](C)O)NC(=O)CSC[C@@H](C(=O)N[C@@H](CCN)C(=O)NCCCCCCCCCCC(=O)O)NC(=O)[C@H](CO)NC(=O)[C@H](C(C)(C)O)NC(=O)[C@H](CC3CCCCC3)NC(=O)[C@H](CCN)NC(=O)[C@@H](CC(C)C)NC(=O)[C@H](CCCN)NC(=O)[C@H](Cc3ccc(OCC(=O)O)cc3)NC(=O)[C@H](Cc3ccc(-c4ccccc4)cc3)NC(=O)[C@H](Cc3ccc(OCC(=O)O)cc3)NC2=O)c1 [Compound 2196] ({CH2CO}-T[Phe(3-CN)]D[Phe(3-Me)]Y(Carboxymethyl)[Bip]Y(Carboxymethyl)[Orn][dL][Dab][Cha][Val(3-OH)]SC[Dab][Aun]-OH; thioether N-14) | 24.4 |
| COc1ccc(C[C@@H]2NC(=O)[C@H](Cc3ccncc3)NC(=O)CSC[C@@H](C(=O)N[C@@H](CCN)C(=O)NCCCCCCCCCCC(=O)O)NC(=O)[C@H](CO)NC(=O)[C@H](C(C)(C)O)NC(=O)[C@H](CC3CCCCC3)NC(=O)[C@H](CCN)NC(=O)[C@@H](CC(C)C)NC(=O)[C@H](CCCN)NC(=O)[C@H](Cc3ccc(OCC(=O)O)cc3)NC(=O)[C@H](Cc3ccc(-c4ccccc4)cc3)NC(=O)[C@H](Cc3ccc(OCC(=O)O)cc3)NC(=O)[C@H](Cc3cccc(C)c3)NC(=O)[C@H](CC(=O)O)NC2=O)cc1 [Compound 2197] ({CH2CO}-[4Pal]Y(Me)D[Phe(3-Me)]Y(Carboxymethyl)[Bip]Y(Carboxymethyl)[Orn][dL][Dab][Cha][Val(3-OH)]SC[Dab][Aun]-OH; thioether N-14) | 15.1 |
| Cc1cccc(C[C@@H]2NC(=O)[C@H](CC(=O)O)NC(=O)[C@H](CCCC(=O)O)NC(=O)[C@H]([C@@H](C)O)NC(=O)CSC[C@@H](C(=O)N[C@@H](CCN)C(=O)NCCCCCCCCCCC(=O)O)NC(=O)[C@H](CO)NC(=O)[C@H](C(C)(C)O)NC(=O)[C@H](CC3CCCCC3)NC(=O)[C@H](CCN)NC(=O)[C@@H](CC(C)C)NC(=O)[C@H](CCCN)NC(=O)[C@H](Cc3ccc(OCC(=O)O)cc3)NC(=O)[C@H](Cc3ccc(-c4ccccc4)cc3)NC(=O)[C@H](Cc3ccc(OCC(=O)O)cc3)NC2=O)c1 [Compound 2198] ({CH2CO}-T[Aad]D[Phe(3-Me)]Y(Carboxymethyl)[Bip]Y(Carboxymethyl)[Orn][dL][Dab][Cha][Val(3-OH)]SC[Dab][Aun]-OH; thioether N-14) | 48.1 |
| Cc1cccc(C[C@@H]2NC(=O)[C@H](CC(=O)O)NC(=O)[C@H](Cc3ccc(OCC(=O)O)cc3)NC(=O)[C@H](Cc3cc(F)c(F)c(F)c3)NC(=O)CSC[C@@H](C(=O)N[C@@H](CCN)C(=O)NCCCCCCCCCCC(=O)O)NC(=O)[C@H](CO)NC(=O)[C@H](C(C)(C)O)NC(=O)[C@H](CC3CCCCC3)NC(=O)[C@H](CCN)NC(=O)[C@@H](CC(C)C)NC(=O)[C@H](CCCN)NC(=O)[C@H](Cc3ccc(OCC(=O)O)cc3)NC(=O)[C@H](Cc3ccc(-c4ccccc4)cc3)NC(=O)[C@H](Cc3ccc(OCC(=O)O)cc3)NC2=O)c1 [Compound 2199] ({CH2CO}-[Phe(3,4,5-F3)]Y(Carboxymethyl)D[Phe(3-Me)]Y(Carboxymethyl)[Bip]Y(Carboxymethyl)[Orn][dL][Dab][Cha][Val(3-OH)]SC[Dab][Aun]-OH; thioether N-14) | 50 |
